Measured values published in patent US7776865B2, “Substituted pyrazolo[1,5-a]pyrimidines as protein kinase inhibitors” (Schering Corporation, priority 2005, dated 2010).
Where two headings read alike, the source gives them in different places.

Experiments:
[1] = target: T1, CDK2/cyclin A (Homo sapiens, UniProt P24941); assay: CDK2 Assay (in vitro kinase assay, cyclin A-dependent); format: biochemical
T1 construct: made in house; host or cells: SF9 cells (recombinant baculovirus, pFASTBAC)

[2] = target: T2, recombinant His-CHK1 (Homo sapiens, UniProt O14757); assay: CHK1 SPA Assay; format: biochemical; conditions: CDC25C biotinylated peptide substrate, 1 uM ATP
T2 construct: His-CHK1, In House Lot P976, MW ˜30 KDa, stored at −80° C; fused on or other part: His tag
T2 sequence (O14757 1-265 limits assumed): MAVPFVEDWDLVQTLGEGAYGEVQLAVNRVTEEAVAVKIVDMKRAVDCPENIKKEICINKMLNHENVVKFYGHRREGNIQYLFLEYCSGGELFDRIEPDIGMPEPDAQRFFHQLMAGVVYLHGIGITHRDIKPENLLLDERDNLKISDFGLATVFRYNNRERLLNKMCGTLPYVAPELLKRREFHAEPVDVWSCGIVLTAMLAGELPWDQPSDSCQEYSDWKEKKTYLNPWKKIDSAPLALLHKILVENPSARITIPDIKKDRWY

[3] = read-out: CDK2/cyclin A IC50, SPA, biotinylated Histone H1 peptide substrate
[4] = SPA, biotinylated Histone H1 peptide substrate, read-out: CDK2/cyclin A IC50

Structure (SMILES)	IC50 ([2]; read-out: CHK1 IC50)	IC50 ([2]; CHK1 IC50 [nM])	also measured
Cc1nc2c(Br)cnn2c(N)c1CCO	29100 nM		IC50 [1, 3]: 0.069 µM
CCc1c(C2CCCNC2)nc2c(-c3cnn(C)c3)cnn2c1N (centres unmarked)		31 nM	IC50 [1, 4]: 0.334 µM
C=C(C)c1c(C2CCCNC2)nc2c(-c3cnn(C)c3)cnn2c1N (centres unmarked)	67 nM		IC50 [1]: 0.201 µM
Cn1cc(-c2cnn3c(N)c(-c4ccsc4)c(C4CCCNC4)nc23)cn1 (centres unmarked)		160 nM	IC50 [1, 4]: 2.15 µM
CC(O)c1c(C2CCCNC2)nc2c(-c3cnn(C)c3)cnn2c1N (single isomer, unassigned) [drawing 212]	148 nM		
Cn1cc(-c2cnn3c(N)c(-c4ccoc4)c(C4CCCNC4)nc23)cn1 (centres unmarked)		340 nM	
COC/C=C/c1c(C2CCCNC2)nc2c(-c3cnn(C)c3)cnn2c1N (centres unmarked)		52 nM	
Cc1nc2c(Br)cnn2c(N)c1CC(N)=O	4750 nM		IC50 [1, 3]: 1.19 µM
CC(O)c1c(C2CCCNC2)nc2c(-c3cnn(C)c3)cnn2c1N (single isomer, unassigned) [drawing 213]	18 nM		
Cc1c(N2CC[C@H](N)C2)nc2c(Br)cnn2c1N	1580 nM		IC50 [1, 3]: 0.754 µM
Cn1cc(-c2cnn3c(N)c(-c4ccccc4)c(C4CCCNC4)nc23)cn1 (centres unmarked)		563 nM	
Cn1cc(-c2cnn3c(N)c(C#N)c(C4CCCNC4)nc23)cn1 (centres unmarked)		102 nM	IC50 [1, 4]: 1.72 µM
CC#Cc1c(C2CCCNC2)nc2c(-c3cnn(C)c3)cnn2c1N (centres unmarked)		44 nM	IC50 [1, 4]: 1.29 µM
Cc1nc2c(Br)cnn2c(N)c1CCC(N)=O	> 50000 nM		IC50 [1, 3]: 0.882 µM
Cn1cc(-c2cnn3c(N)c(-c4cccnc4)c(C4CCCNC4)nc23)cn1 (centres unmarked)		507 nM	IC50 [1, 4]: 1.48 µM
Cn1cc(-c2cnn3c(N)c(C4CC4)c(C4CCCNC4)nc23)cn1 (centres unmarked)		17 nM	IC50 [1, 4]: 0.167 µM
Cn1cc(-c2cnn3c(N)c(-c4ccncc4)c(C4CCCNC4)nc23)cn1 (centres unmarked)		229 nM	IC50 [1, 4]: 11.3 µM
Cn1cc(-c2c(C3CCCNC3)nc3c(-c4cnn(C)c4)cnn3c2N)cn1 (centres unmarked)		102 nM	IC50 [1, 4]: 224 µM
CCC(=O)c1c(C2CCCNC2)nc2c(-c3cnn(C)c3)cnn2c1N (centres unmarked)	12 nM		IC50 [1]: 0.038 µM
Cn1cc(-c2cnn3c(N)c(-c4cnn(CCO)c4)c(C4CCCNC4)nc23)cn1 (centres unmarked)	114 nM		IC50 [1]: 11.7 µM
CNC(=O)Cc1c(C)nc2c(Br)cnn2c1N	> 50000 nM		IC50 [1, 3]: 41.3 µM
Cn1cc(-c2cnn3c(N)c(-c4cccs4)c(C4CCCNC4)nc23)cn1 (centres unmarked)		86 nM	
Cn1cc(-c2cnn3c(N)c(C(=O)Cc4ccccc4)c(C4CCCNC4)nc23)cn1 (centres unmarked)	47 nM		IC50 [1]: 0.103 µM
CC(=O)c1c(C2CCCNC2)nc2c(-c3cnn(C)c3)cnn2c1N (centres unmarked)	8 nM		IC50 [1]: 0.033 µM
CCc1c(N2CC[C@H](N)C2)nc2c(Br)cnn2c1N	845 nM		IC50 [1, 3]: 0.852 µM
CC(=NO)c1c(C2CCCNC2)nc2c(-c3cnn(C)c3)cnn2c1N (centres unmarked)	59 nM		
Nc1c(-c2ccccc2)c(N2CC[C@H](N)C2)nc2c(Br)cnn12	22600 nM		melting point: 167 to 170 °C
